For series [1] the following is noted: cited from earlier work.
For series [2] the following is noted: cited from earlier work. This is another data set of the same source.
In the next series the test system is fungi. The series can be described thus: Antifungal activity compared with traditional veterinary antifungal compounds. To be noted: fold versus clotrimazole, miconazole, nystatin. From the text: The antifungal drug preferably is posaconazole, a drug with 10-400× the antifungal activity of traditional antifungal compounds used in veterinary medicine such as clotrimazole, miconazole, nystatin. It will be the first use of a triazole antifungal in veterinary medicine. The combination for this proposed otic product is new. The product requires only one application per day. In summary, the justification for use of the centralized procedure is: • Novel antibiotic in an otic preparation with none of the ototoxicity of the aminoglycosides often used in such products; • Novel, corticosteroid, with a better safety profile when compared other corticosteroids used in otic preparations; • Potent triazole anti-fungal drug; • Novel combination of the three drugs described above; • Single daily application.

Turning to `C[C@@H]1C[C@H]2[C@@H]3CCC4=CC(=O)C=C[C@]4(C)[C@@]3(Cl)[C@@H](O)C[C@]2(C)[C@@]1(OC(=O)c1ccco1)C(=O)CCl` [Mometasone Furoate, 9,21-Dichloro-11(beta),17-dihydroxy-16(alpha)-methylpregna-1,4-diene-3,20-dione 17-(2 Furoate)], the solubility in acetone entry in series [1] (acetone) is given as “soluble”. Moreover, the solubility in chloroform entry in series [1] (chloroform) was “soluble”. In addition, in series [1] (ethanol), the solubility in ethanol entry is “slightly soluble”. In series [1] (isopropanol), the solubility in isopropanol entry was “slightly soluble”. Also, the solubility in methanol result in series [1] (methanol) is “slightly soluble”. In addition, the solubility in tetrahydrofuran result in series [1] (tetrahydrofuran) is recorded as “freely soluble”. Moreover, in series [1] (water), the solubility in water result is on record as “practically insoluble”. For the same molecule, the “partition coefficient between octanol and water” value in series [2] is recorded as “greater than 5000”.
Consider `CC[C@@H]([C@H](C)O)n1ncn(-c2ccc(N3CCN(c4ccc(OC[C@@H]5CO[C@@](Cn6cncn6)(c6ccc(F)cc6F)C5)cc4)CC3)cc2)c1=O` [posaconazole], for which the “antifungal activity relative to traditional antifungal compounds” value in the series with fungi was 10-400 ×.

These data come from US8609645B2, “Pharmaceutical formulation” (Intervet Inc., priority 2004, dated 2013).
